Measurements published in patent US5480983A, “Adenosine derivatives, preparation methods and pharmaceutical compositions containing them” (Laboratoires UPSA, priority 1992, dated 1996).

Columns and labels:
[1] = target: T1, rat central A2 adenosinergic receptors (Rattus norvegicus, UniProt P30543); test: Binding to adenosine A2 receptors ([3H] NECA displacement); conditions: [3H] NECA 4 nM, n=3; for inhibition at 10 µM: read-out: % displacement of the labeled ligand, A2, 1E-5M; for inhibition at 0.1 µM: read-out: % displacement of the labeled ligand, A2, 1E-7M
T1 construct: the striatum is removed from each of them (Bruns et al., 1986); from tissue; host or cells: rat striatum, homogenate (membrane preparation)
T1 sequence (P30543 whole entry): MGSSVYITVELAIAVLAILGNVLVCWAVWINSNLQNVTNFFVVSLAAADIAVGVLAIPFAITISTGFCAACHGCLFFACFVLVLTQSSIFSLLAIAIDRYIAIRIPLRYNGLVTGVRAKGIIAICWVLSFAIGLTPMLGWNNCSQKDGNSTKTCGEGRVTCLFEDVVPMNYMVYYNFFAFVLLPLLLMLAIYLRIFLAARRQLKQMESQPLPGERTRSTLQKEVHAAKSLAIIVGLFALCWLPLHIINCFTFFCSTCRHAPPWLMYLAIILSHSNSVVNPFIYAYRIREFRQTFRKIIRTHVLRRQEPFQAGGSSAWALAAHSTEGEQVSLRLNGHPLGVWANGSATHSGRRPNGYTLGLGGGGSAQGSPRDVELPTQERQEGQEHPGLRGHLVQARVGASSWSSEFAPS
Method: (§1) The affinity of the products of the Examples for the rat central A1 and A2 adenosinergic receptors is determined by the competitive technique using a radioactive ligand specifically bound either to the A1 receptors ([^3 H] PIA) or to the A2 receptors ([^3 H] NECA).
Method of studying the A2 receptors Membrane preparation
After decapitation of the animal, the brain is quickly removed and washed in cold isotonic solution. The two hemispheres are separated and the striatum is removed from each of them (Bruns et al., 1986), weighed and introduced into a polyallomer tube containing 10 volumes of cold homogenization buffer. The tissue is homogenized with an Ultra-Turrax for 30 seconds (3 times 10 seconds with 10-second intervals, 70% of the maximum speed). The ground material is centrifuged at 50,000 g (≈20,500 rpm) for 10 minutes at 4° C.
The residue obtained is resuspended in 10 volumes of homogenization buffer using a Vortex and homogenized with the Ultra-Turrax (5 to 10 seconds, 70% of the maximum speed).
Adenosine deaminase is then added at a rate of 1 U/ml, i.e. 1 μl/ml of homogenate, using a 10 μl Hamilton syringe. The homogenate treated in this way is shaken at room temperature for 30 minutes.
When the incubation is complete, the homogenate is centrifuged at 50,000 g (≈20,500 rpm) for 10 minutes at 4° C.
The residue is taken up with 5 volumes of cold homogenization buffer and passed through the Ultra-Turrax (2 times 10 seconds with a 10-second interval, 70% of the maximum speed) and the homogenate prepared in this way is finally frozen at -70° C. Competitive test
After the homogenate has been thawed at room temperature, 15 volumes of incubation buffer are added. The homogenate is shaken on a Vortex, passed through a Potter mill (6 to-and-fro movements, speed 6), diluted to 1/10 in incubation buffer and finally placed in a water bath thermostated at 4° C., with shaking, until the end of the experiment.
(§2) 50 μl of [^3 H] NECA at 160 nM, i.e. 4 nM in the final reaction medium allowing for the 1/40 dilution, and 50 μl of the product of the Example at the concentrations considered (10^-5 M and 10^-7 M) are introduced into the reaction tubes. The reaction is initiated by the addition of 1 ml of homogenate and 900 μl of incubation buffer. The procedure is similar for all the compounds studied.
The tubes are shaken and incubated in a water bath at 25° C. for 60 minutes. When the incubation is complete, the contents of the tubes are filtered on Whatman GF/B paper. Each tube is washed twice with 2 ml of rinsing buffer and then the filters themselves are rinsed with 3 ml of this same buffer before being transferred to counting flasks.
10 ml of liquid scintillator (Ready Solv HP/b, Beckman) are added to all the flasks. These are shaken and stored in a refrigerator overnight. The radioactivity is determined in a liquid scintillation counter.
(§3) 3 tests are performed for each concentration studied. The non-specific binding of the [^3 H] NECA is determined by measuring the amount of radioactivity retained on the filter in the presence of 5 μM N-ethylcarboxamidoadenosine (NECA). The value of the non-specific binding is systematically subtracted from that of the tests.
(§4) The results are expressed for each product in the form of the percentage displacement (n=3) of the labeled radioligand at concentrations of 10^-5 M and 10^-7 M.

[2] = target: T2, rat central A1 adenosinergic receptors (Rattus norvegicus, UniProt P25099); test: Binding to adenosine A1 receptors ([3H] PIA displacement); conditions: [3H] PIA 2.5 nM, n=3; for inhibition at 10 µM: read-out: % displacement of the labeled ligand, A1, 1E-5M; for inhibition at 0.1 µM: read-out: % displacement of the labeled ligand, A1, 1E-7M
T2 construct: After the animal has been sacrificed by decapitation, the brain is quickly removed and washed in cold isotonic solution; from tissue; host or cells: rat brain, membrane preparation from the two hemispheres
T2 sequence (P25099 1-326): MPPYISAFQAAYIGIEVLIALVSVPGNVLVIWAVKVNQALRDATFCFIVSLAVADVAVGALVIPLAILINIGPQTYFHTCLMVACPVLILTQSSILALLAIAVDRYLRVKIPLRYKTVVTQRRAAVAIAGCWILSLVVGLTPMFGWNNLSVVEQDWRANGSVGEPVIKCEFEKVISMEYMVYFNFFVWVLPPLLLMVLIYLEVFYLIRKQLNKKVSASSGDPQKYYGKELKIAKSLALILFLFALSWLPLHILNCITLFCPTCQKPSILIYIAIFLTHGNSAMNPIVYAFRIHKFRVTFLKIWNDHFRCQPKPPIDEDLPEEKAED
Method: as §1
After the animal has been sacrificed by decapitation, the brain is quickly removed and washed in cold isotonic solution. The two hemispheres are separated and weighed and each of them is introduced into a polyallomer tube containing 25 volumes of cold homogenization buffer. Homogenization is effected using an Ultra-Turrax for 30 seconds (3 times 10 seconds with 10-second intervals, 70% of the maximum speed). The ground material obtained is centrifuged at 1000 g (≈3000 rpm) for 10 minutes at 4° C.
The supernatant is centrifuged again at 48,000 g (≈20,000 rpm) for 20 minutes at 4° C.
When this step is complete, the residue is taken up with 4 volumes of homogenization buffer, resuspended using a Vortex and homogenized with the Ultra-Turrax. Adenosine deaminase is then added at a rate of 1 U/ml, i.e. 1 μl/ml of homogenate, using a 10 μl Hamilton syringe.
After this treatment, the homogenate is shaken for 30 minutes at room temperature and then centrifuged at […] (≈20,000 rpm) for 30 minutes at 4° C.
The residue obtained is resuspended in 10 volumes of homogenization buffer and passed through the Ultra-Turrax for 20 seconds (2 times 10 seconds with a 10-second interval, 70% of the maximum speed).
The homogenate prepared in this way is used for the competitive tests. It is kept at 4° C. if the studies take place the same day, or stored at -20° C. in the form of 10 ml aliquots.
After the homogenate has been thawed at room temperature, it is passed through a Potter mill (6 manual to-and-fro movements, speed 6), diluted to 2/5 in incubation buffer and placed in a water bath thermostated at 4° C., with shaking, until the end of the experiment.
as §2, with “H] PIA” for “H] NECA”, “at 100” for “at 160”, “i.e. 2.5” for “i.e. 4”, “considered ([…]” for “considered (10^-5”, “is identical” for “is similar”, “the […]” for “the compounds”
The tubes are shaken and incubated in a water bath at 20° C. for 30 minutes. When the incubation is complete, the contents of the tubes are filtered on Whatman GF/B paper. Each tube is washed twice with 2 ml of rinsing buffer and then the filters themselves are rinsed with 3 ml of this same buffer.
The filters are then transferred to counting flasks and 10 ml of liquid scintillator (Ready Solv HP/b, Beckman) are added.
After they have been shaken, the flasks are stored in a refrigerator overnight and the radio-activity is then determined in a liquid scintillation counter.
as §3, with “PIA” for “NECA”, “assessed” for “determined”, “10^-5 M phenylisopropyladenosine (PIA).” for “5 μM N-ethylcarboxamidoadenosine (NECA).”
as §4

[3] = Phenylbenzoquinone test (analgesic activity); assay type: in vivo; conditions: Mus musculus, 1 h; mice; oral, one hour before phenylbenzoquinone i.p.; 5 minutes observation; read-out: Phenylbenzoquinone test 50% inhibitory dose
Method: 2. Phenylbenzoquinone test
The intraperitoneal injection of phenylbenzoquinone causes twisting and stretching movements in mice. Analgesics prevent or reduce this syndrome, which can be considered as the exteriorization of diffuse abdominal pain.
A 0.02% solution of phenylbenzoquinone in water is administered in a volume of 1 ml/100 g.
The products of the Examples are administered orally one hour before the injection of phenylbenzoquinone.
The stretching and twisting movements are counted for each mouse over an observation period of 5 minutes.

SMILES | inhibition at 10 µM ([1]; 1E-5M) | inhibition at 0.1 µM ([1]; 1E-7M) | inhibition at 10 µM ([2]; 1E-5M) | inhibition at 0.1 µM ([2]; 1E-7M) | ED50 [3] | % displacement of the labeled ligand, A2, 1E-5M ([1]; 1E-5M, 10 µM) | % displacement of the labeled ligand, A2, 1E-7M ([1]; 1E-7M, 0.1 µM) | % displacement of the labeled ligand, A1, 1E-5M ([2]; 1E-5M, 10 µM) | % displacement of the labeled ligand, A1, 1E-7M ([2]; 1E-7M, 0.1 µM)
O=C(NC1CC1)[C@H]1O[C@@H](n2cnc3c(NCCc4cn(Cc5ccc(Cl)cc5)c5ccccc45)ncnc32)[C@H](O)[C@@H]1O [Example 61, β-D-Ribofuranuronamido-1-[6-[[2-[1-(4-chlorobenzyl)indol-3-yl]ethyl]amino]-9H-purin-9-yl]-N-cyclopropyl-1-deoxy] | 91% | 30% | 98% | 47% | 0.9 mg/kg |  |  |  | 
Cc1ccc(Cn2cc(CCNc3ncnc4c3ncn4[C@@H]3O[C@H](C(=O)NC4CC4)[C@@H](O)[C@H]3O)c3ccccc32)cc1C [Example 67, β-D-Ribofuranuronamido-N-cyclopropyl-1-deoxy-1-[6-[[2-[1-(3,4-dimethylbenzyl)indol-3-yl]ethyl]amino]-9H-purin-9-yl]] | 83% | 13% | 96% | 29% | 3 mg/kg |  |  |  | 
O=C(NC1CC1)[C@H]1O[C@@H](n2cnc3c(NCCc4cn(CCN5CCCCC5)c5ccccc45)ncnc32)[C@H](O)[C@@H]1O [Example 71 (base), β-D-Ribofuranuronamido-N-cyclopropyl-1-deoxy-1-[6-[[2-[1-(2-N-piperidinoethyl)indol-3-yl]ethyl]amino]-9H-purin-9-yl]] |  |  |  |  |  | 92% | 46% | 99% | 94%
Cc1ccc(C)c(Cn2cc(CC(C)Nc3ncnc4c3ncn4[C@@H]3O[C@H](C(=O)NC4CC4)[C@@H](O)[C@H]3O)c3ccccc32)c1 (stereo partly drawn) [Example 92, β-D-Ribofuranuronamido-N-cyclopropyl-1-deoxy-1-[6-[[1-[1-(2,5-dimethylbenzyl)indol-3-yl]propan-2-yl]amino]-9H-purin-9-yl]] | 84% | 9% | 96% | 21% | 3.6 mg/kg |  |  |  | 
Cc1ccc(C)c(Cn2c(C)c(CCNc3ncnc4c3ncn4[C@@H]3O[C@H](C(=O)NC4CC4)[C@@H](O)[C@H]3O)c3ccccc32)c1 [Example 87, β-D-Ribofuranuronamido-N-cyclopropyl-1-deoxy-1-[6-[[2-[1-(2,5-dimethylbenzyl)-2-methylindol-3-yl]ethyl]amino]-9H-purin-9-yl]] | 60% | 7% | 56% | 5% | 1.2 mg/kg |  |  |  | 
Cc1ccc(Cn2cc(CCNc3ncnc4c3ncn4[C@@H]3O[C@H](C(=O)NC4CC4)[C@@H](O)[C@H]3O)c3ccccc32)cc1 [Example 66, β-D-Ribofuranuronamido-N-cyclopropyl-1-deoxy-1-[6-[[2-[1-(4-methylbenzyl)indol-3-yl]ethyl]amino]-9H-purin-9-yl]] | 89% | 21% | 97% | 37% | 3 mg/kg |  |  |  | 
O=C(NC1CC1)[C@H]1O[C@@H](n2cnc3c(NCCc4cn(C5CCCC5)c5ccccc45)ncnc32)[C@H](O)[C@@H]1O [Example 64, β-D-Ribofuranuronamido-1-[6-[[2-[1-cyclopentylindol-3-yl]ethyl]amino]-9H-purin-9-yl]-N-cyclopropyl-1-deoxy] | 90% | 28% | 96% | 21% | 0.3 mg/kg |  |  |  | 
O=C(NC1CC1)[C@H]1O[C@@H](n2cnc3c(NCCc4cn(CCN5CCOCC5)c5ccccc45)ncnc32)[C@H](O)[C@@H]1O [Example 69, β-D-Ribofuranuronamido-N-cyclopropyl-1-deoxy-1-[6-[[2-[1-(2-N-morpholinoethyl)indol-3-yl]ethyl]amino]-9H-purin-9-yl]] | 90% | 12% | 93% | 63% |  |  |  |  | 
CN(C)CCn1cc(CCNc2ncnc3c2ncn3[C@@H]2O[C@H](C(=O)NC3CC3)[C@@H](O)[C@H]2O)c2ccccc21 [Example 70, β-D-Ribofuranuronamido-N-cyclopropyl-1-deoxy-1-[6-[[2-[1-(2-N,N-dimethylaminoethyl)indol-3-yl]ethyl]amino]-9H-purin-9-yl]] | 94% | 44% | 100% | 91% |  |  |  |  | 
